Data reported in publication PMC6938345, “Inhibition of complement activation, myeloperoxidase, NET formation and oxidant activity by PIC1 peptide variants” (PLoS ONE, 2019).
Where a SMILES comes first, the peptide text is derived from it. [ ]: non-standard residue; d: D form. Sar = CNCC(=O)O

Columns and labels:
[1] = tested on: purified human neutrophils; assay: NETosis assay, free DNA by PicoGreen; type: cell-based; conditions: for PICO green - NETs, free DNA release: Average of n = 3, peptide 2 mM
Description: NETosis assays with immune complexes were performed as previously described. Briefly, normal human serum was stimulated with ovalbumin-antiovalbumin immune complexes in GVBS^++ for 30 minutes at 37 °C. This mixture along with 0.05% H2O2 was then added to purified human neutrophils resuspended in RPMI with or without sarcosine variants (2 mM), allowing NETosis to occur. Quantitation of free DNA released from the neutrophils was performed using PicoGreen. Slides were stained with DAPI (Southern Biotech, Birmingham, AL) and the following antibodies, mouse anti-elastase (Invitrogen, Carlsbad, CA) was used with the secondary goat anti-mouse Alexa Fluor 568 (Novus Biologicals, Centennial, CO) and rabbit anti-histone H3 (Abcam, Cambridge MA) with goat anti-rabbit Alexa Fluor 488 (Novus Biologicals) to visualize formation of NETs which were imaged with fluorescence microscopy with an Olympus BX53 microscope.
In this assay purified human neutrophils are stimulated with normal human serum activated with ovalbumin-antiovalbumin immune complexes and hydrogen peroxide. Free DNA expressed from the neutrophils is then measured in a PicoGreen assay.
Fig 5 Sarcosine variant inhibition of NET formation. Fluorescence microscopy images of NET formation after neutrophil stimulation with immune complexes (IC) and hydrogen peroxide (H2O2) compared with neutrophil only control. Variant I8 inhibition of NET formation is shown in the third row. Histones are probed with anti-histone antibody (αhistone), neutrophil elastase is probed with anti-neutrophil elastase (αNE) and DNA is stained with DAPI. Representative images are shown. […] Purified human neutrophils were stimulated with 2% normal human sera pre-incubated with ovalbumin-antiovalbumin immune complexes, and 0.05% H2O2. Sarcosine peptides and PIC1 were added to the sera to a final concentration of 2 mM. Data are the means of n = 3 independent experiments + SEM.

[2] = tested on: antibody-initiated complement activation (type O sera + type AB red blood cells); assay: ABO incompatibility hemolytic assay (CH50-type, ex vivo); type: cell-based, human; conditions: peptides 1.8 mM; for ABO hemolysis: Avg of n = 4, concentration basis of PIC1 not stated
Description: For hemolytic complement assays, human red blood cells (RBCs) from type AB donors were purified, washed and standardized to 1 × 10^9 cells/ml, as previously described. Human sera from type O donors at a 20% final concentration was combined with 1 mM PIC1 or sarcosine variant peptides and the volume was brought up to 0.15 ml with GVBS^++ and 0.5 ml RBCs. For factor B-depleted sera hemolytic assays, a final of 0.005% factor B depleted sera was incubated with 1 mM PIC1 or sarcosine variant peptides with 0.1 ml antibody-sensitized sheep red blood cells (EA) in a final volume of 0.75 ml GVBS^++. The samples were incubated for 1 hour at 37 °C and then 1.0 ml of GVBS^-—was added to the factor B-depleted samples to stop the reaction. The samples were spun at 3,000 rpm for 5 minutes and the supernatant was collected and read at 412 nm. Values are represented as a percent of the positive control, which consists of human O sera and AB red blood cells in GVBS^++ buffer.
In order to evaluate the extent to which the peptide variants inhibit antibody-initiated complement activation, we tested them in two hemolytic assays including an ABO incompatibility ex vivo assay (Fig 1A) and a classical pathway CH50-type assay in factor B-depleted sera (Fig 1B). In the ABO incompatibility hemolytic assay, purified erythrocytes from a ‘type AB+’ donor are incubated with sera from a ‘type O’ subject containing anti-A and anti-B antibodies; peptides were tested at 1.8 mM. […] We then performed a CH50-type hemolytic assay, with antibody-sensitized sheep erythrocytes, isolating the classical pathway by utilizing factor B-depleted sera; peptides were tested at 0.4 mM.
Fig 1 Sarcosine variant inhibition of complement activation in hemolytic assays and C1q binding. A) Inhibition of ABO incompatibility hemolysis in a CH50-type assay. Peptides are at a final concentration of 1.8 mM. […] Data are the means of n = 4 independent experiments + SEM. B) Inhibition of classical complement pathway-mediated hemolysis in factor B-depleted sera in a CH50-type assay. Peptides are at a final concentration of 0.4 mM. Data are the means of n = 4 independent experiments + SEM. C) Binding of increasing concentrations of sarcosine variants to purified C1q in an ELISA-type assay. Data are the means of n = 3 independent experiments ± SEM. D) Half-maximal binding concentrations were calculated for each peptide’s binding curve.

[3] = Peptide solubility in water
Description: (PA) (Table 1) were synthesized by New England Peptide (Gardner, MA) to >90% purity. Sarcosine variants and PEG were dissolved in water and the pH was adjusted with NaOH. PA was dissolved in DMSO and then brought up to the final concentration with water resulting in 30% DMSO and pH adjusted. Antibody sensitized sheep erythrocytes (EA), purified C1q and factor B-depleted human sera were purchased from Complement Technology (Tyler, TX). Purified myeloperoxidase was purchased from Lee BioSolutions (Maryland Heights, MO) and tetramethylbenzidine (TMB) and PicoGreen were purchased from Thermo Fisher (Waltham MA).
(PA), peptide derivatives were synthesized with sarcosine residues substituted at all 15 positions, included a peptide in which the vicinal cysteines at positions 9 and 10 (C9,C10) were replaced with a single sarcosine residue (Table 1).

[4] = Total Antioxidant Capacity (TAC) assay; conditions: for TAC assay, antioxidant activity: Avg of n = 3; for antioxidant capacity (in words): TAC assay
Description: The TAC (Total Antioxidant Capacity) Assay (Cell Biolabs, Inc, San Diego, CA) was used to measure the antioxidant capacity of the sarcosine variants based on the reduction of copper (II) to copper (I). The kit protocol was performed as recommended.
Antioxidant activity is measured in copper reducing equivalents (CRE). Peptides were tested over a range of concentrations from 0.03–0.25 mM then compared to the standard. Data are the means of n = 3 independent experiments + SEM.

C1q = target: T1, C1q (Homo sapiens, UniProt P02745+P02746+P02747); assay: C1q binding ELISA-type assay; conditions: C1q as capture substrate
T1 construct: purchased Complement Technology (Tyler, TX)
T1 sequence (P02745 23-245): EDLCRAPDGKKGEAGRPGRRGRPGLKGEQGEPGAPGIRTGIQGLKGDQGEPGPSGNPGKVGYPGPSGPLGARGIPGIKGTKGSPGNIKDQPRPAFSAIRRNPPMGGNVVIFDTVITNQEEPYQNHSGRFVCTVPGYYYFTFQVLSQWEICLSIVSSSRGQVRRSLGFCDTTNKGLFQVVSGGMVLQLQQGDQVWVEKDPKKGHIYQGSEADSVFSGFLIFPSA
T1 sequence (P02746 28-253): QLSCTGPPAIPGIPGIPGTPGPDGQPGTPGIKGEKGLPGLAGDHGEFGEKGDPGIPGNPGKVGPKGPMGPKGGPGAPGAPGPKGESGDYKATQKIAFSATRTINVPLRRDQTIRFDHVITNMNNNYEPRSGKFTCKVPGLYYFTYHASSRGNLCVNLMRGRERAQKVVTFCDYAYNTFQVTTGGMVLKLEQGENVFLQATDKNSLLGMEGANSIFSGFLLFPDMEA
T1 sequence (P02747 29-245): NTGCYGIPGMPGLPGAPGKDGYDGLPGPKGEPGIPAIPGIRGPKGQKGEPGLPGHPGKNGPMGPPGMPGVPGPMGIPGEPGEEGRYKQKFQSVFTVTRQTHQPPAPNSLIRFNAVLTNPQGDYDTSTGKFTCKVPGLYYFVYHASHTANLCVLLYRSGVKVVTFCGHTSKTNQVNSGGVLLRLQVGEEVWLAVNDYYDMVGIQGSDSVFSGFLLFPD
Description: An Immunlon-2 HB ELISA plate was coated with 1 μg/ml C1q or MPO in bicarbonate buffer overnight at 4 °C. The plates were washed with PBST (phosphate buffered saline + 0.1% Tween) and then blocked with 1% gelatin/PBS for 2 hours at room temperature. After washing, the plates were incubated with PA or sarcosine variant peptides starting at 2.5 mg/ml and then serially diluted in 1% gelatin/PBS for 1 hour at room temperature. After washing, the plates were probed with rabbit anti-PA (developed with Cocalico Biologicals, Reamstown, PA) at 1:1000 in 1% gelatin/PBS for 1 hour, room temperature, followed by a goat anti-rabbit HRP (Sigma Aldrich, St Louis, MO) at 1:1,000 in 1% gelatin/PBS for 1 hour at room temperature with a washing step in between. Wells were developed using TMB substrate solution, stopped using 1 N H2SO4, and read at 450 nm in a plate reader.
We then tested peptide variant binding to C1q in an ELISA-type assay in which the C1q is used as the capture substrate. Binding curves for each peptide is shown in Fig 1C, from which half-maximal binding concentrations were calculated (Fig 1D). […] Higher concentrations of DMSO interfere with the detecting reagents resulting in a partial binding curve.

| Compound | PICO green - NETs, free DNA release [1] | ABO hemolysis [2] | inhibition of ABO incompatible hemolysis (in words) [2] | solubility in water (in words) [3] | TAC assay, antioxidant activity [4] | inhibition of NETosis (in words) ([1]; peptides 2 mM, immune complexes + H2O2, PicoGreen free DNA) | antioxidant capacity (in words) [4] | binding to C1q (in words) (C1q) |
| --- | --- | --- | --- | --- | --- | --- | --- | --- |
| CC[C@H](C)[C@H](N)C(=O)N(C)CC(=O)N[C@@H](CC(C)C)C(=O)N[C@H](C(=O)N[C@@H](CC(C)C)C(=O)N[C@@H](CCC(=O)O)C(=O)N1CCC[C@H]1C(=O)N[C@H](C(=O)N[C@@H](CS)C(=O)N[C@@H](CS)C(=O)N[C@@H](CCC(N)=O)C(=O)N[C@@H](CCC(=O)O)C(=O)N[C@@H](CCCNC(=N)N)C(=O)N[C@@H](C)C(=O)N[C@@H](C)C(=O)O)[C@@H](C)CC)[C@@H](C)CC [A2] | 44 | 18.50 % of Control | to a greater extent than did the PA-dPEG24 | soluble in water | 1071.61 copper reducing equivalents (CRE) |  |  |  |
| CC[C@H](C)[C@H](N)C(=O)N[C@@H](C)C(=O)N[C@@H](CC(C)C)C(=O)N[C@H](C(=O)N[C@@H](CC(C)C)C(=O)N[C@@H](CCC(=O)O)C(=O)N1CCC[C@H]1C(=O)N[C@H](C(=O)N(C)CC(=O)N[C@@H](CCC(N)=O)C(=O)N[C@@H](CCC(=O)O)C(=O)N[C@@H](CCCNC(=N)N)C(=O)N[C@@H](C)C(=O)N[C@@H](C)C(=O)O)[C@@H](C)CC)[C@@H](C)CC [C9,10] (H-IALILEPI[Sar]QERAA-OH) |  |  |  | soluble in water |  |  |  |  |
| CC[C@H](C)[C@H](N)C(=O)N[C@@H](C)C(=O)N[C@@H](CC(C)C)C(=O)N(C)CC(=O)N[C@@H](CC(C)C)C(=O)N[C@@H](CCC(=O)O)C(=O)N1CCC[C@H]1C(=O)N[C@H](C(=O)N[C@@H](CS)C(=O)N[C@@H](CS)C(=O)N[C@@H](CCC(N)=O)C(=O)N[C@@H](CCC(=O)O)C(=O)N[C@@H](CCCNC(=N)N)C(=O)N[C@@H](C)C(=O)N[C@@H](C)C(=O)O)[C@@H](C)CC [I4] | 68 | 18.25 % of Control | to a greater extent than did the PA-dPEG24 | soluble in water | 1518.02 copper reducing equivalents (CRE) | reduced ability to inhibit NETosis | approaching that of PA-dPEG24 |  |
| CC[C@H](C)[C@H](N)C(=O)N[C@@H](C)C(=O)N(C)CC(=O)N[C@H](C(=O)N[C@@H](CC(C)C)C(=O)N[C@@H](CCC(=O)O)C(=O)N1CCC[C@H]1C(=O)N[C@H](C(=O)N[C@@H](CS)C(=O)N[C@@H](CS)C(=O)N[C@@H](CCC(N)=O)C(=O)N[C@@H](CCC(=O)O)C(=O)N[C@@H](CCCNC(=N)N)C(=O)N[C@@H](C)C(=O)N[C@@H](C)C(=O)O)[C@@H](C)CC)[C@@H](C)CC [L3] | 29 | 24.75 % of Control |  | soluble in water | 1336.63 copper reducing equivalents (CRE) |  | approaching that of PA-dPEG24 |  |
| CC[C@H](C)[C@H](N)C(=O)N[C@@H](C)C(=O)N[C@@H](CC(C)C)C(=O)N[C@H](C(=O)N(C)CC(=O)N[C@@H](CCC(=O)O)C(=O)N1CCC[C@H]1C(=O)N[C@H](C(=O)N[C@@H](CS)C(=O)N[C@@H](CS)C(=O)N[C@@H](CCC(N)=O)C(=O)N[C@@H](CCC(=O)O)C(=O)N[C@@H](CCCNC(=N)N)C(=O)N[C@@H](C)C(=O)N[C@@H](C)C(=O)O)[C@@H](C)CC)[C@@H](C)CC [L5] | 32 | 33.50 % of Control |  | soluble in water | 882.23 copper reducing equivalents (CRE) |  |  |  |
| CC[C@H](C)[C@H](N)C(=O)N[C@@H](C)C(=O)N[C@@H](CC(C)C)C(=O)N[C@H](C(=O)N[C@@H](CC(C)C)C(=O)N[C@@H](CCC(=O)O)C(=O)N1CCC[C@H]1C(=O)N[C@H](C(=O)N[C@@H](CS)C(=O)N[C@@H](CS)C(=O)N[C@@H](CCC(N)=O)C(=O)N[C@@H](CCC(=O)O)C(=O)N[C@@H](CCCNC(=N)N)C(=O)N[C@@H](C)C(=O)N[C@@H](C)C(=O)O)[C@@H](C)CC)[C@@H](C)CC [PA] |  |  |  | poor aqueous solubility | 1289.18 copper reducing equivalents (CRE) |  |  | superior binding to C1q |
